According to US8071625B2, “Certain chemical entities, compositions, and methods” (Cytokinetics, Inc., priority 2006, dated 2011):

Target: T1, crosslinked smooth muscle actomyosin (chicken gizzard smooth muscle myosin subfragment-1 crosslinked to cardiac or skeletal actin) (Gallus gallus, UniProt P10587)
T1 construct: chicken gizzard smooth muscle myosin subfragment-1; from tissue; host or cells: chicken gizzard
Assay: Lead optimization pyruvate kinase/horseradish peroxidase/pyruvate oxidase-coupled ATPase assay (compound dose response)
Assay type: biochemical
Conditions: read-out: IC50 Arithmetic Mean
How it was run: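 The ATPase used chicken gizzard smooth muscle myosin S1 chemically crosslinked to cardiac or skeletal actin, titrated to a set hydrolysis rate. It was coupled via pyruvate kinase/pyruvate oxidase/HRP in 12 mM K-PIPES pH 7.00 (22 °C) with 0.15 mM ATP, 2 mM MgCl2, 100 mM KCl and 0.1 mM Amplex Red. Fluorescence was read at ex 480/em 615 nm, and IC50 came from a 4-parameter fit.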

Row | IC50 | Molecule
1 | 18.5 µM | CCc1ccc(NC(=O)CCC(C)(C)C(=O)NCc2ccccc2Cl)cc1 [N-[(2-chlorophenyl)methyl]-N′-(4-ethylphenyl)-2,2-dimethylpentane-1,5-diamide]
2 | 0.439 µM | CCc1ccc(NC(=O)OCC2(C(=O)NCc3cccc4ccccc34)CCN(C(=O)CN)CC2)cc1 [({1-(2-aminoacetyl)-4-[N-(naphthylmethyl)carbamoyl](4-piperidyl)}methoxy)-N-(4-ethylphenyl)carboxamide]
3 | 0.724 µM | CCc1ccc(NC(=O)OCC2(C(=O)NCc3ccccc3Cl)CCN(C(=O)[C@H](C)N)CC2)cc1 [(1-((2S)-2-aminopropanoyl)-4-{[N-(4-ethylphenyl)carbamoyloxy]methyl}(4-piperidyl))-N-[(2-chlorophenyl)methyl]carboxamide]
4 | 6.28 µM | CCc1ccc(NC(=O)OCC2(C(=O)NCc3ccccc3Cl)CCN(CC)CC2)cc1 [N-[(2-chlorophenyl)methyl](1-ethyl-4-{[N-(4-ethylphenyl)carbamoyloxy]methyl}(4-piperidyl))carboxamide]
5 | 0.875 µM | CCc1ccc(NC(=O)OCCN(C)C(=O)CCc2ccccc2Cl)cc1 [3-(2-chlorophenyl)-N-{2-[N-(4-ethylphenyl)carbamoyloxy]ethyl}-N-methylpropanamide]
6 | 1.88 µM | CCc1ccc(NC(=O)NCC2(C(=O)NCc3ccccc3Cl)CCN(C(=O)CO)CC2)cc1 [N-[(2-chlorophenyl)methyl][4-({[(4-ethylphenyl)amino]carbonylamino}methyl)-1-(2-hydroxyacetyl)(4-piperidyl)]carboxamide]
7 | 16.2 µM | Cc1c(Cl)cccc1NC(=O)OCC1(C(=O)NCc2ccccc2Cl)CCOCC1 [(4-{[N-(3-chloro-2-methylphenyl)carbamoyloxy]methyl}(2H-3,4,5,6-tetrahydropyran-4-yl))-N-[(2-chlorophenyl)methyl]carboxamide]
8 | 0.418 µM | CCc1ccc(NC(=O)OCC2(C(=O)NCc3ccccc3Cl)CCN(C(C)=O)CC2)cc1 [(1-acetyl-4-{[N-(4-ethylphenyl)carbamoyloxy]methyl}(4-piperidyl))-N-[(2-chlorophenyl)methyl]carboxamide]
9 | 0.412 µM | CCc1ccc(NC(=O)OCC2(C(=O)NCc3ccccc3Cl)CCN(C(=O)c3ccccc3)CC2)cc1 [N-[(2-chlorophenyl)methyl](4-{[N-(4-ethylphenyl)carbamoyloxy]methyl}-1-(phenylcarbonyl)(4-piperidyl))carboxamide]
10 | 6.39 µM | CCOC(=O)c1ccc(NC(=O)OCC2(C(=O)NCc3ccccc3Cl)CCOCC2)cc1 [ethyl 4-{[(4-{N-[(2-chlorophenyl)methyl]carbamoyl}-2H-3,4,5,6-tetrahydropyran-4-yl)methoxy]carbonylamino}benzoate]
11 | 17.4 µM | CCc1ccc(NC(=O)OCCNC(C)=O)cc1 [N-{2-[N-(4-ethylphenyl)carbamoyloxy]ethyl}acetamide]
12 | 18.5 µM | CCc1ccc(NC(=O)OC[C@H](C)N(CC(=O)OC(C)(C)C)C(=O)NCc2ccccc2Cl)cc1 [tert-butyl 2-(N-{(1S)-2-[N-(4-ethylphenyl)carbamoyloxy]-isopropyl}{[(2-chlorophenyl)methyl]amino}carbonylamino)acetate]
13 | 0.125 µM | CCc1ccc(NC(=O)OCC2(C(=O)NCc3ccccc3Cl)CCN(C(=O)[C@@H](N)CO)CC2)cc1 [(1-((2S)-2-amino-3-hydroxypropanoyl)-4-{[N-(4-ethylphenyl)carbamoyloxy]methyl}(4-piperidyl))-N-[(2-chlorophenyl)methyl]carboxamide]
14 | 19 µM | COc1cccc(NC(=O)OCC2(C(=O)NCc3ccccc3Cl)CCOCC2)c1 [N-[(2-chlorophenyl)methyl](4-{[N-(3-methoxyphenyl)carbamoyloxy]methyl}(2H-3,4,5,6-tetrahydropyran-4-yl))carboxamide]
15 | 3.55 µM | tert-butyl 4-[(4-{N-[(2-chlorophenyl)methyl]carbamoyl}-4-{[N-(4-ethylphenyl)carbamoyloxy]methyl}piperidyl)carbonyl]piperidinecarboxylate
16 | 2.62 µM | CCc1ccc(NC(=O)NCC2CCCN2C(=O)NCc2ccccc2Cl)cc1 (centres unmarked) [N-[(2-chlorophenyl)methyl][2-({[(4-ethylphenyl)amino]carbonylamino}methyl)pyrrolidinyl]carboxamide]

Row | IC50 | Molecule
17 | 8.52 µM | CCc1ccc(NC(=O)OC(C)CN(C)C(=O)NCc2ccccc2Cl)cc1 (centres unmarked) [[2-({[(2-chlorophenyl)methyl]amino}-N-methylcarbonylamino)-isopropoxy]-N-(4-ethylphenyl)carboxamide]
18 | 0.757 µM | CCc1ccc(NC(=O)OCC2(C(=O)NCc3ccccc3Cl)CCN(C(=O)c3ccccn3)CC2)cc1 [N-[(2-chlorophenyl)methyl](4-{[N-(4-ethylphenyl)carbamoyloxy]methyl}-1-(2-pyridylcarbonyl)(4-piperidyl))carboxamide]
19 | 6.75 µM | CCc1ccc(NC(=O)NCCN(C)C(=O)NCc2ccccc2Cl)cc1 [N-[2-({[(2-chlorophenyl)methyl]amino}-N-methylcarbonylamino)ethyl][(4-ethylphenyl)amino]carboxamide]
20 | 14.4 µM | CCc1ccc(NC(=O)OCC2(C(=O)NCc3ccccc3Cl)CCN(Cc3ccccc3)CC2)cc1 [N-[(2-chlorophenyl)methyl](4-{[N-(4-ethylphenyl)carbamoyloxy]methyl}-1-benzyl(4-piperidyl))carboxamide]
21 | 0.515 µM | CCc1ccc(NC(=O)OCC2(C(=O)NCc3ccccc3Cl)CCN(C(=O)C3COCCN3)CC2)cc1 (centres unmarked) [N-[(2-chlorophenyl)methyl](4-{[N-(4-ethylphenyl)carbamoyloxy]methyl}-1-(morpholin-3-ylcarbonyl)(4-piperidyl))carboxamide]
22 | 1.86 µM | CCc1ccc(NC(=O)OC[C@@H]2C[C@@H](NC(C)=O)CN2C(=O)NCc2ccccc2Cl)cc1 [N-((5S,3R)-1-{N-[(2-chlorophenyl)methyl]carbamoyl}-5-{[N-(4-ethylphenyl)carbamoyloxy]methyl}pyrrolidin-3-yl)acetamide]
23 | 0.742 µM | CCc1ccc(NC(=O)OCC(C)(CCNC(C)=O)C(=O)NCc2ccccc2Cl)cc1 (centres unmarked) [4-(acetylamino)-N-[(2-chlorophenyl)methyl]-2-{[N-(4-ethylphenyl)carbamoyloxy]methyl}-2-methylbutanamide]
24 | 0.221 µM | CCc1ccc(NC(=O)OCC2(C(=O)NCc3ccccc3Cl)CCN(C(=O)C3CCN3)CC2)cc1 (centres unmarked) [(1-(azetidin-2-ylcarbonyl)-4-{[N-(4-ethylphenyl)carbamoyloxy]methyl}(4-piperidyl))-N-[(2-chlorophenyl)methyl]carboxamide]
25 | 0.173 µM | CCc1ccc(NC(=O)OCC2(C(=O)NCc3ccccc3Cl)CCN(C(=O)CO)CC2)cc1 [N-[(2-chlorophenyl)methyl](4-{[N-(4-ethylphenyl)carbamoyloxy]methyl}-1-(2-hydroxyacetyl)(4-piperidyl))carboxamide]
26 | 11.7 µM | CCc1ccc(NC(=O)OCC2CN(C(=O)NCc3ccccc3Cl)CCO2)cc1 (centres unmarked) [[(4-{N-[(2-chlorophenyl)methyl]carbamoyl}morpholin-2-yl)methoxy]-N-(4-ethylphenyl)carboxamide]
27 | 9.18 µM | CCc1ccc(NC(=O)OCC(C)(NC(=O)CO)C(=O)NCc2ccccc2Cl)cc1 (centres unmarked) [N-[(2-chlorophenyl)methyl]-3-[N-(4-ethylphenyl)carbamoyloxy]-2-(2-hydroxyacetylamino)-2-methylpropanamide]
28 | 17 µM | N#Cc1ccccc1NC(=O)OCC1(C(=O)NCc2ccccc2Cl)CCOCC1 [N-[(2-chlorophenyl)methyl](4-{[N-(2-cyanophenyl)carbamoyloxy]methyl}(2H-3,4,5,6-tetrahydropyran-4-yl))carboxamide]
29 | 18.2 µM | CCc1ccc(CC(=O)NCC2(C(=O)NCc3ccccc3Cl)CC2)cc1 [N-[({N-[(2-chlorophenyl)methyl]carbamoyl}cyclopropyl)methyl]-2-(4-ethylphenyl)acetamide]
30 | 0.426 µM | CCc1ccc(NC(=O)OCC2(C(=O)NCc3ccccc3Cl)CCN(C(=O)CCC(=O)OC)CC2)cc1 [methyl 4-(4-{N-[(2-chlorophenyl)methyl]carbamoyl}-4-{[N-(4-ethylphenyl)carbamoyloxy]methyl}piperidyl)-4-oxobutanoate]
31 | 15.2 µM | CCc1ccc(NC(=O)N2CCN(C(=O)CN)C(C(=O)NCc3ccccc3Cl)C2)cc1 (centres unmarked) [(4-(2-aminoacetyl)-3-{N-[(2-chlorophenyl)methyl]carbamoyl}piperazinyl)-N-(4-ethylphenyl)carboxamide]
32 | 0.456 µM | O=C(Nc1ccc(C(F)(F)F)cc1)OCC1(C(=O)NCc2ccccc2Cl)CCN(C(=O)CO)CC1 [N-[(2-chlorophenyl)methyl][1-(2-hydroxyacetyl)-4-({N-[4-(trifluoromethyl)phenyl]carbamoyloxy}methyl)(4-piperidyl)]carboxamide]

Row | Molecule | IC50
33 | CCc1ccc(NC(=O)OCC2(C(=O)NCc3ccccc3Br)CCN(C(=O)CN(C)C(=O)OC(C)(C)C)CC2)cc1 [(tert-butoxy)-N-[2-(4-{N-[(2-bromophenyl)methyl]carbamoyl}-4-{[N-(4-ethylphenyl)carbamoyloxy]methyl}piperidyl)-2-oxoethyl]-N-methylcarboxamide] | 2.86 µM
34 | CCc1ccc(NC(=O)OCC2(C(=O)NCc3ccccc3C#N)CCN(C(=O)CNC(=O)OC(C)(C)C)CC2)cc1 [(1-{2-[(tert-butoxy)carbonylamino]acetyl}-4-{[N-(4-ethylphenyl)carbamoyloxy]methyl}(4-piperidyl))-N-[(2-cyanophenyl)methyl]carboxamide] | 7.69 µM
35 | CCc1ccc(NC(=O)OCC2(C(=O)NCc3ccccc3Cl)CCN(C(=O)[C@@H](C)NC(=O)OC(C)(C)C)CC2)cc1 [N-[(1R)-2-(4-{N-[(2-chlorophenyl)methyl]carbamoyl}-4-{[N-(4-ethylphenyl)carbamoyloxy]methyl}piperidyl)-1-methyl-2-oxoethyl](tert-butoxy)carboxamide] | 12 µM
